Laboratory results taken from patent publication US20260263400A1, “COMPOUND COMPOSITION INCLUDING TRANEXAMIC ACID AND TRETINOIN” (Nanjing Indetek Laboratory Co., Ltd., priority 2023, published 2026).
“Also recorded” adds a separate entry of the source.

System: Guinea pig, Hartley-Dunkin

Which “body weight compared with the negative control group” value (D15, D31, D38) does the source give for `O=[N+]([O-])c1ccc(Cl)c([N+](=O)[O-])c1` [1-Chloro-2,4-dinitrobenzene] here?
The value was “male animals showed slow weight gain; also recorded: female animals showed no significant difference in body weight”.

And the “incidence of allergic reaction” value (after challenge)?
Its value is 100%.
